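Dose response: 5 concentrations. Exposure: 48 h. Format: 96-well plates. Endpoint: linear interpolation; highest concentration if not reached. TGI: concentration producing complete growth inhibition.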
How the values were obtained:
Test in all cases: NCI anticancer screen, dose series, 48 h
UO-31 renal = tested on: UO-31 renal
UACC-257 melanoma = tested on: UACC-257 melanoma
SF-295 CNS = tested on: SF-295 CNS
CCRF-CEM leukemia = tested on: CCRF-CEM leukemia
K-562 leukemia = tested on: K-562 leukemia
SF-268 CNS = tested on: SF-268 CNS
M14 melanoma = tested on: M14 melanoma
SK-MEL-5 melanoma = tested on: SK-MEL-5 melanoma
NCI-H460 lung = tested on: NCI-H460 lung
SN12C renal = tested on: SN12C renal
SNB-19 CNS = tested on: SNB-19 CNS
OVCAR-8 ovarian = tested on: OVCAR-8 ovarian
HOP-92 NSCLC = tested on: HOP-92 NSCLC
PC-3 prostate = tested on: PC-3 prostate
MDA-N = tested on: MDA-N
EKVX NSCLC = tested on: EKVX NSCLC
HS 578T breast = tested on: HS 578T breast
RPMI-8226 leukemia = tested on: RPMI-8226 leukemia
OVCAR-5 ovarian = tested on: OVCAR-5 ovarian
CAKI-1 renal = tested on: CAKI-1 renal

Compound | TGI (UO-31 renal) | TGI (UACC-257 melanoma) | TGI (SF-295 CNS) | TGI (CCRF-CEM leukemia) | TGI (K-562 leukemia) | TGI (SF-268 CNS) | TGI (M14 melanoma) | TGI (SK-MEL-5 melanoma) | TGI (NCI-H460 lung) | TGI (SN12C renal) | TGI (SNB-19 CNS) | TGI (OVCAR-8 ovarian) | TGI (HOP-92 NSCLC) | TGI (PC-3 prostate) | TGI (MDA-N) | TGI (EKVX NSCLC) | TGI (HS 578T breast) | TGI (RPMI-8226 leukemia) | TGI (OVCAR-5 ovarian) | TGI (CAKI-1 renal)
CC1(C)OP23(NC(=O)OC2(C(F)(F)F)c2ccccc2O3)OC1(C)C (stereo not given) | > 100 µM | > 100 µM | > 100 µM | > 100 µM | > 100 µM | > 100 µM | > 100 µM | > 100 µM | > 100 µM | > 100 µM | > 100 µM | > 100 µM | – | – | – | – | – | – | – | –
COc1ccc2[nH]c(C(=O)N3CC(CCl)c4ccc(N)cc43)cc2c1 (stereo not given) | – | – | – | 1.44 µM | 0.494 µM | – | 0.319 µM | 0.195 µM | 3.24 µM | 1.62 µM | > 44.5 µM | > 68.9 µM | > 100 µM | 10 µM | 0.347 µM | 2.78 µM | 1.32 µM | > 35.4 µM | > 30.1 µM | 0.299 µM
O=C(CCCn1cnc([N+](=O)[O-])n1)NCCn1ccnc1[N+](=O)[O-] | > 100 µM | > 100 µM | > 100 µM | > 100 µM | > 100 µM | > 100 µM | > 100 µM | > 100 µM | > 100 µM | – | – | – | > 100 µM | > 100 µM | > 100 µM | > 100 µM | > 100 µM | > 100 µM | > 100 µM | > 100 µM
